How the values were obtained:
[1] = test system: human diploid lung fibroblasts (DLFs) and human bronchial epithelial cells (HBEC-Cdc6 Tet-ON); assay: IHC staining versus proliferation markers (Ki67 and BrdU incorporation); type: cell-based; conditions: FIG. 16
[2] = test system: senescent cells in cellular systems, mouse models and human clinical samples; assay: Double staining with Ki67, p16INK4A or p21WAF1/Cip1
Description: • 1. Compound (LG13) • 2. 100% ethanol (100% EtOH) • 3. Parafilm • 4. Fritted glass filter of medium porosity • 5. Airtight Dye Container 2.2.2 General Procedure: • 1. Dissolve 40 mg of the compound (LG13) in 7.4 ml 100% EtOH in a glass beaker and cover it with parafilm. • 2. Incubate at 56° C. in a waterbath for 120 min until the compound is completely dissolved. 2.3. General Method for Compound (LG13) Staining 2.3.1 Materials: • 1. Xylene • 2. […] Syringe • 4. 13 mm filter, membrane 0.22 μm • 5. Soft paper (dry or dipped in ethanol) • 6. Anti-biotin antibody ([Hyb-8] ab201341, Abcam) • 7. Ultravision Quanto Detection System HRP DAB kit (Cat no: TL-125-QHD) • 8. Glycerol (Sigma-Aldrich) • 9. Tris Buffered Saline (TBS; 10×): 1.5 M NaCl, 0.1 M Tris-HCl, pH 7.4. Store at 4° C. • 10. 0.5% Triton X/TBS: 0.5 ml Triton X diluted in 99.5 ml TBS • 11. Mounting media Glycergel (DakoCytomation). • 12. Light Microscope • 13. Anti-p21^WAF1/Cip1 mouse primary antibody [(F-5)(sc-6246) Santa-Cruz] • 14. Anti-p16^INK4A mouse primary antibody [(sc-74401) Santa-Cruz] • 15. Anti-Ki67 rabbit polyclonal antibody [ab16667, Abcam] • 16. Secondary goat anti-mouse antibody Alexa Fluor 568 conjugated [Thermo Fisher Scientific (Cat no: A-11004)] • 17. DAPI (4′,6-Diamidino-2-Phenylindole, Dihydrochloride) [Thermo Fisher Scientific (Cat no: D1306)] • 18. Fluorescence microscope 2.3.2 General Procedures: 2.3.2.1 General Staining Protocol for Cells Mounted on Coverslips • 1. Wash ×1 in TBS for 5 min at RT. • 2. Block the endogenous hydrogen peroxidase, using the UltraVision Hydrogen Peroxide Block included in the Ultravision Quanto Detection System HRP DAB kit (Cat no: TL-125-QHD) for 10 min at RT and in dark conditions. • 3. Wash ×2 in TBS for 30 sec and ×1 for 5 min at RT. • 4. Wash ×1 in EtOH 50% for 5 min at RT. • 5. Wash ×1 EtOH 70% for 5 min at RT. • 6. […] The staining reaction is monitored under the light microscope until detection of the signal (average time 5-8 min). • 8. […] The staining reaction is monitored under the light microscope until detection of the dark brown signal (average time 30 sec-1 min) at RT 1. • 20. […]

[3] = test system: senescent cells in biological systems with established senescence; assay: Quantitative analysis and concordance of SA-b-gal, SBB and GL13 staining; conditions: FIG. 15

CC1(COC(=O)CCCC[C@H]2SC[C@H]3NC(=O)N[C@H]32)Nc2cccc3c(/N=N/c4ccc(/N=N/c5ccccc5)c5ccccc45)ccc(c23)N1 (stereo partly drawn) [LG13, (2-methyl-6-((E)-(4-((E)-phenyldiazenyl)naphthalen-1-yl)diazenyl)-2,3-dihydro-1H-perimidin-2-yl)methyl 5-((3aR,4R,6aS)-2-oxohexahydro-1H-thieno[3,4-d]imidazol-4-yl)pentanoate]
relationship between IHC staining and proliferation markers (Ki67 and BrdU incorporation) [1]: Inverse relationship
relationship between Ki67 expression and compound staining ([2]; double staining in cell culture systems and human clinical samples, FIG. 11): Strict inverse relationship
compound staining of senescent cells with nuclear p16INK4A or p21WAF1/Cip1 expression ([2]; irradiated DLFs, induced Saos2-p21 Tet-ON, K-rasV12 mouse lung adenoma, irradiated human breast samples, FIG. 12i): concurrently positive
relationship between nuclear Ki67 positivity and compound staining ([2]; lung sections, mouse bleomycin-induced lung fibrosis, FIG. 12ii): strict inverse relationship
specificity compared among SA-b-gal, SBB and GL13 staining [3]: concordance of specificity

From US11034839B2, “Compounds, linked with haptens, for the detection of senescent cells” (THE UNIVERSITY OF MANCHESTER, priority 2016, dated 2021)
